Data on two compounds can be found in patent US8337916B2, “Use of Aphanamixis polystacha extracts or fractions against 5-lipoxygenase mediated diseases” (Laila Nutraceuticals, priority 2007, dated 2012).

The nature of test [1]: Superoxide radical scavenging activity (NBT method, McCord and Fridovich). Format: biochemical. Particulars: riboflavin/NBT, phosphate buffer pH 7.8, 560 nm. The procedure:
Superoxide radical scavenging activity of test substances was determined by the method of McCord and Fridovich. […] The tubes were mixed well and optical densities were measured at 560 nm. The tubes were uniformly illuminated with an incandescent lamp for 15 min. and the optical densities were measured again at 560 nm. The percentage inhibition of superoxide radical generation was measured by comparing the absorbance values of control and those of the test substances. The IC50 values were obtained from the plot drawn of the concentration (μg) verses percentage inhibition.

Test [2] can be described thus: DPPH free radical scavenging activity (method of Lamaison et al.). It counts as physicochemical. Particulars: methanolic DPPH, 517 nm. (DPPH is a stable violet radical that fades when it is reduced.)
The test system of the next test is paw edema. Put plainly: Freund complete adjuvant induced arthritis model, paw edema. Format: in vivo, Sprague Dawley rats. Particulars: prednisolone 10 mg/kg body weight for 14 days; paw volume 13 days after FCA; vs CMC control. How it is done:
The anti-oxidant and anti-inflammatory efficacies of Aphanamixis polystachya extract or fractions were evaluated by an in vivo study in Freund complete adjuvant induced arthritis model of Sprague Dawley rats. The rats of either sex were randomly selected and divided into three groups containing four animals in each group. Rats were supplemented with 50 mg/kg body weight of A. polystachya extract, or prednisolone (10 mg/kg body weight) for 14 days. The animals of control group received only the same volume of 1% Na CMC. At the 14 th day, Freund complete adjuvant (FCA) was injected subcutaneously in the sub-plantar region of the left hind paw of each animal. At the end of experiment, the animals were sacrificed and liver tissue samples were excised and stored in aliquot at −80° C. Blood samples were collected from each animal at a regular interval and paw volumes were measured by Plethysmography equipment after 13 days of FCA inoculation. The difference in volume of edema at the day of FCA injection and at 13th day after induction is considered as the inflammatory response. The in vivo anti-inflammatory response of A. polystachya was estimated by calculating, the percentage of inhibition of paw edema when compared with the CMC supplemented control rats and was compared with that of the positive control group supplemented with prednisolone as shown in FIG. 1.

Turning to `O=C1O[C@H]([C@@H](O)CO)C(O)=C1O` [Vitamin C], in test [1], the “NBT method IC50 (superoxide radical scavenging)” value stood at 150 µg/mL. Also, the “DPPH method IC50” value in test [2] is 4.1 µg/mL.
For the compound `C[C@]12C=CC(=O)C=C1CC[C@@H]1[C@@H]2[C@@H](O)C[C@@]2(C)[C@H]1CC[C@]2(O)C(=O)CO` [prednisolone], the “inhibition in paw edema” value with paw edema worked out at 47.4%.
